Structures are written as SMILES. “Also recorded” adds a separate entry of the source. Like-named read-outs stand apart in the source and are kept apart here.

The subject of one data set is A549 lung cancer cells. The experiment in a line: Cell viability (resazurin) assay, A549. In kind it is cell-based. The note with it: read-out: IC50 values (mean ± SD) A549. The protocol:
(§1) This includes lung cancer cells (A549) and breast cancer cells (MCF‐7 and MDA‐MB‐231). […] The remaining compounds were also found to portray the inhibition at a low micromolar range and better than the cisplatin, employed as a positive control during the experiment.
(§2) The cell viability assay of new compounds was performed against A549, MCF‐7, and MDA‐MB‐231 carcinoma cell lines. The cells (2500 cells/well) were seeded in a 96‐well plate using DMEM media (Gibco by Life Technologies) consisting of 10% FBS and subjected to incubation at 37°C for 24 h in 5% CO2 in a Nuaire incubator (humidified) for adherence to surface and growth. After 24 h, cells were subjected to treatment against target compounds (1K1‐1K5) at different concentrations (final concentrations ranging from 0.01–30 μM) and left for incubation for 72 h at the same conditions as mentioned above. The same procedure was repeated after 72 h after replacing the remaining test compound with fresh media and incubating treated cells for a further 48 h. After incubation, the remaining compounds with media were removed followed by washing with fresh media and the addition of 100 μL of resazurin (1 mM, Sigma). The 96‐well plate was incubated for 4 h at room temperature. A multimode microplate reader was used to record fluorescence at 535 nm (excitation) and 590 nm (emission) wavelengths. Background fluorescence was subtracted for calculating final results and avoiding any interference and normalized against vehicle control (DMSO treated cells) to calculate final cell viability. Cell viability (percentage) was used to calculate the IC50 values of the target compounds using fitting the curve to the “four‐parameter variable slope logistic model” using Prism Graph Pad (Kathuria et al. [2023]; Rani et al. [2023]).
For orientation: Alamar Blue is a resazurin reagent that responds to reducing activity.

For data set [1], the system named is MCF-7 breast cancer cells. In words: Cell viability (resazurin) assay, MCF-7. Type of data set: cell-based. The note with it: read-out: IC50 values (mean ± SD) MCF-7. The procedure:
as §1, §2

The subject of data set [2] is MDA-MB-231 breast cancer cells. In words: Cell viability (resazurin) assay, MDA-MB-231. Type of data set: cell-based. The following applies: MDA-MB-231 cells, read-out: IC50 values (mean ± SD) MDA-MB-231. The protocol: as §1, §2
The nature of data set [3]: Human liver microsomal stability (DMPK). The note with it: for % parent remaining: human liver microsomes 0.5 mg/mL, 1 μM compound, NADPH, 30 min; for half-life at 1 μM: human, liver microsomes, pH 7.4, human liver microsomes, read-out: T 1/2 (HLM); for microsomal CLint at 1 μM: pH 7.4, human liver microsomes, read-out: CLint (HLM). In kind it is in vitro ADME. The procedure: (§3) To understand the intrinsic pharmacokinetics of synthetics and their stability in relation to human liver microsomal (HLM) and mouse liver microsomal (MLM), we performed the DMPK studies.
(§4) The DMPK evaluation involves multiple reagents and instruments. The chemical and reagents include synthesized target molecules (at a concentration of 1–3 mg), DMSO (HPLC grade), PBS (pH = 7.4), NADPH, and liver microsomes (human and mouse) procured from Thermo. The instruments include Nexera X2 UPLC with an AB Sciex QTrap 4500 MS/MS detector (Shimadzu), single and multichannel micropipette (Eppendorf USA and Thermo), a 96‐well plate (1 mL capacity with deep wells) vortex mixer (Tarsons), centrifuge tubes (Tarsons) water bath (MRC), and a centrifuge (Thermo). The fresh stock solutions (10 mM) were prepared and incubations were carried out in duplication. Each well‐comprised potassium phosphate buffer (100 mM, pH 7.4) with 0.5 mg/mL microsome, NADPH (1 mM), and target molecule (1 μM). After 30 min incubation (37°C), the aliquots were taken at 0 and 30 min and quenched with chilled acetonitrile comprising Terfenadine as internal standard. The samples were centrifuged at 4000 rpm at 4°C, and the supernatant was subjected to LC–MS/MS for analysis. The experiment was used to determine the half‐life of the compound with the help of peak area ratio relative to the internal standard.
On the technique in general: Microsomes from liver hold many membrane-bound enzymes, among them those of drug oxidation.

Data set [4] can be described thus: Mouse liver microsomal stability (DMPK). Type of data set: in vitro ADME. The note with it: for % parent remaining: mouse liver microsomes 0.5 mg/mL, 1 μM compound, NADPH, 30 min; for half-life at 1 μM: mouse, liver microsomes, pH 7.4, mouse liver microsomes, read-out: T 1/2 (MLM); for microsomal CLint at 1 μM: pH 7.4, mouse liver microsomes, read-out: CLint (MLM). The procedure:
as §3, §4

The target of the next data set is T1, MERTK (cMER) (Homo sapiens, UniProt Q12866).
T1 sequence (Q12866 21-999): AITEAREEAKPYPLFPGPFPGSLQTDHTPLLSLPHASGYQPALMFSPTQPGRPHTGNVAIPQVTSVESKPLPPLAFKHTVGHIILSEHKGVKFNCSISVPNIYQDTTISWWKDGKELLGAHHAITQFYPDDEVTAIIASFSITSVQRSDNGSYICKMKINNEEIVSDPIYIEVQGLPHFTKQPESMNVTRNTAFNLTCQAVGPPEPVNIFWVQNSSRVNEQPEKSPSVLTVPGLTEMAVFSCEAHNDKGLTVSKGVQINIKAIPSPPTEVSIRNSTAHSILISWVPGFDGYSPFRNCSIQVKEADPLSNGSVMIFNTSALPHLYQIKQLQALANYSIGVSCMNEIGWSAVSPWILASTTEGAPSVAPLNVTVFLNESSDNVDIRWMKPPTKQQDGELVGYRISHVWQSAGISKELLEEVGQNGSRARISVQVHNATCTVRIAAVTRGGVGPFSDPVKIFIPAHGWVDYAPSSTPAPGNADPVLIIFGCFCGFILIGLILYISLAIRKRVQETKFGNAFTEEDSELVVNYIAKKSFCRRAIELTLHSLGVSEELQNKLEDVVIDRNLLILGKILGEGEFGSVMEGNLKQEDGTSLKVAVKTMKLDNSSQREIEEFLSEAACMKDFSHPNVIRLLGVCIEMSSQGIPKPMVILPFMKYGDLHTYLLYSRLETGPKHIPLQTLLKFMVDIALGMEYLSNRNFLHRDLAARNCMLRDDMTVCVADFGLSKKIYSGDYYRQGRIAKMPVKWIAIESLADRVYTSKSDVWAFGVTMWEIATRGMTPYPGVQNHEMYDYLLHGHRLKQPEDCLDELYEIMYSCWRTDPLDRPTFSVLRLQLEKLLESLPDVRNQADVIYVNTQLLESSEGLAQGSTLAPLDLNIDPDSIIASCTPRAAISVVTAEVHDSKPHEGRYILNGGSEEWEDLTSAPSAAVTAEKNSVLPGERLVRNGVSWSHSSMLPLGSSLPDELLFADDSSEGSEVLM
In words: MERTK kinase inhibition assay (Z-Lyte kinase assay kit). Type of data set: biochemical. The procedure: All the synthesized molecules were assessed for their kinase inhibitory activity against MERTK using a kinase inhibition assay.
[…] (z‐Lyte kinase assay kit‐tyr4 peptide) was utilized to determine MERTK inhibitory activity as per the protocol supplied by the supplier along with the kit. Briefly, the mixture of MERTK (cMER) / Tyr 02 (2X) was made using HEPES buffer (50 mM, pH 7.5) comprising polyoxyethylene lauryl ether solution (0.01%), MgCl2 (10 mM), MnCl2 (4 mM), EGTA (1 mM), and DTT (2 mM). The kinase solution of 10 μL was used as the final reaction solution. In the next step, the target molecules in varying concentrations were incubated with kinase solution for 1 h. Development reagent A (5 μL) of 1:128 dilution was added after the incubation period. The fluorescence was measured at Ex/Em 400, 445, and 520 nm using a microplate reader for the determination of final percentage inhibition. The percent phosphorylation was determined via the use of the emission ratio calculated from the division of Coumarin Emission (at 445 nm) to fluorescein emission (at 520 nm). %phosphorylation=1−Emission ratio×F100%−C100%/C0%−C100%+Emission ratioF100%−F0%

Where [5] appears, read: Homo sapiens, MCF7, MCF-7 cells.

`COc1cc(-c2cc3c(Nc4ccc(C5CCN(C)CC5)c(F)c4)ncnn3c2)cc(Cl)c1F` [1K4, 6‐(3‐Chloro‐4‐Fluoro‐5‐Methoxyphenyl)‐N‐(3‐Fluoro‐4‐(1‐Methylpiperidin‐4‐yl)phenyl)pyrrolo[2,1‐f][1,2,4]Triazin‐4‐Amine]: the IC50 (as a rule, the concentration that inhibits the measured activity by half) with A549 lung cancer cells (Homo sapiens) is 890 ± 11 nM; in data set [1] (setting [5]), 1140 ± 11 nM; in data set [2] (Homo sapiens) it was 1470 ± 14 nM. Further, the % parent remaining in data set [3] turned out to be 75.8%; in data set [4], 91.7%. Also, the results for the half-life at 1 μM in data set [3] and in data set [4] were 75.2 min and 238 min, respectively. The values for the microsomal CLint at 1 μM in data set [3] and in data set [4] were 18 µL/min/mg and 6 µL/min/mg, respectively.

As to `CN1CCC(c2ccc(Nc3ncnn4cc(-c5cc(F)c(F)c(F)c5)cc34)cc2F)CC1` [1K1, N‐(3‐Fluoro‐4‐(1‐Methylpiperidin‐4‐yl)phenyl)‐6‐(3,4,5‐trifluorophenyl)pyrrolo[2,1‐f][1,2,4]Triazin‐4‐Amine], the results for the IC50 (in the data set with A549 lung cancer cells (Homo sapiens); in data set [1] (setting [5]); in data set [2] (Homo sapiens)) were 8630 ± 21 nM, 1280 ± 14 nM and 4020 ± 15 nM, respectively. In addition, the % parent remaining in data set [3] was 71.7%; in data set [4], 70%. The half-life at 1 μM was found to be 62.4 min in data set [3] and 58.3 min in data set [4]. Besides, the microsomal CLint at 1 μM came to 22 µL/min/mg in data set [3] and 24 µL/min/mg in data set [4].

On to `CCOc1c(Cl)cc(-c2cc3c(Nc4ccc(C5CCN(C)CC5)c(F)c4)ncnn3c2)cc1OC` [1K2, 6‐(3‐Chloro‐4‐Ethoxy‐5‐Methoxyphenyl)‐N‐(3‐Fluoro‐4‐(1‐Methylpiperidin‐4‐yl)phenyl)pyrrolo[2,1‐f][1,2,4]Triazin‐4‐Amine], for which the IC50 in the data set with A549 lung cancer cells (Homo sapiens) stood at 1180 ± 19 nM; in data set [1] (setting [5]) it was 440 ± 15 nM; in data set [2] (Homo sapiens) it was 1700 ± 11 nM. Moreover, the % parent remaining in data set [3] is 82.8%; in data set [4], 83.4%. Moreover, the half-life at 1 μM in data set [3] turned out to be 110 min; in data set [4], 114 min. Moreover, the values for the microsomal CLint at 1 μM in data set [3] and in data set [4] were 13 µL/min/mg and 12 µL/min/mg, respectively.

`CCOc1ccc(-c2cc3c(Nc4ccc(C5CCN(C)CC5)c(F)c4)ncnn3c2)cc1OC` [1K5, 6‐(4‐Ethoxy‐3‐Methoxyphenyl)‐N‐(3‐Fluoro‐4‐(1‐Methylpiperidin‐4‐yl)phenyl)pyrrolo[2,1‐f][1,2,4]Triazin‐4‐Amine]: the 50% inhibitory concentration (IC50) in the data set with A549 lung cancer cells (Homo sapiens) is 360 ± 19 nM; in data set [1] (setting [5]), 420 ± 17 nM; in data set [2] (Homo sapiens), 800 ± 11 nM. Besides, the % parent remaining in data set [3] stood at 94.9%; in data set [4], 79.7%. The half-life at 1 μM in data set [3] worked out at 397 min; in data set [4], 92.4 min. The results for the microsomal CLint at 1 μM in data set [3] and in data set [4] were 3 µL/min/mg and 15 µL/min/mg, respectively. Moreover, the “inhibition of MERTK” value against MERTK (cMER) (1 and 10 μM test concentrations) is recorded as “approx. 42%”. At MERTK (cMER) (listed as IK5), the “MERTK inhibition compared with positive control staurosporine” value is recorded as “comparable inhibition to positive control staurosporine; also recorded: comparable inhibitory potential to the positive control drug staurosporine”.

Take `CN1CCC(c2ccc(Nc3ncnn4cc(-c5ccc(C(C)(C)C)cc5)cc34)cc2F)CC1` [1K3, 6‐(4‐(Tert‐butyl)phenyl)‐N‐(3‐Fluoro‐4‐(1‐Methylpiperidin‐4‐yl)phenyl)pyrrolo[2,1‐f][1,2,4]Triazin‐4‐Amine]: the figures for the IC50 (in the data set with A549 lung cancer cells (Homo sapiens); in data set [1] (setting [5]); in data set [2] (Homo sapiens)) were 1440 ± 17 nM, 1420 ± 21 nM and 4060 ± 19 nM, respectively. Besides, the % parent remaining in data set [3] worked out at 65.7%; in data set [4], 57%. Further, the half-life at 1 μM in data set [3] stood at 36.9 min; in data set [4], 49.4 min. For the same compound, the figures for the microsomal CLint at 1 μM in data set [3] and in data set [4] were 28 µL/min/mg and 38 µL/min/mg, respectively.

Take `N.N.[Cl][Pt][Cl]` [Cisplatin, cisplatin, reference compound]: the IC50 with A549 lung cancer cells turned out to be 5860 ± 9 nM; in data set [1] (MCF-7 cells), 4930 ± 130 nM; in data set [2], 5420 ± 90 nM.
